Measurements taken from the supplement of paper PMC10307832.

Tests used:
Assay in all cases: relative viability (nuclei count vs DMSO), 5 days (fraction); higher = more cells survive
A-427 = tested on: A-427
Summary of the method: (§1)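 Values are medians from duplicate plates. Each reflects relative viability, defined as the nuclei count of treated wells over that of vehicle wells. Lung cancer cell lines in 1536-well plates were pin-tool dosed one day after seeding with one drug alone or with a fixed anchor-drug dose plus five library-drug doses (not always all listed) in √10 steps, then fixed, stained and imaged at 4× after 5 days.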

A549 = tested on: A549
Summary of the method: as §1

CAL-12T = tested on: CAL-12T
Summary of the method: as §1

Calu-6 = tested on: Calu-6
Summary of the method: as §1

EBC-1 = tested on: EBC-1
Summary of the method: as §1

IA-LM = tested on: IA-LM
Summary of the method: as §1

LK-2 = tested on: LK-2
Summary of the method: as §1

NCI-H1299 = tested on: NCI-H1299
Summary of the method: as §1

NCI-H1703 = tested on: NCI-H1703
Summary of the method: as §1

NCI-H1734 = tested on: NCI-H1734
Summary of the method: as §1

NCI-H2009 = tested on: NCI-H2009
Summary of the method: as §1

UMC-11 = tested on: UMC-11
Summary of the method: as §1

Compound: O=c1cc(N2CCOCC2)oc2c(-c3cccc4c3sc3ccccc34)cccc12 + C[C@]1(O)C[C@@H](c2nc(-c3ccc4ccc(-c5ccccc5)nc4c3)c3c(N)nccn32)C1 [Linsitinib] (partner 1 µM)
- relative viability (A-427; first compound 0.01 µM): 1.13
- relative viability (A-427; first compound 0.03162 µM): 1.12
- relative viability (A-427; first compound 0.1 µM): 1.23
- relative viability (A-427; first compound 0.3162 µM): 1.12
- relative viability (A-427; first compound 1 µM): 1.11
- relative viability (A549; first compound 0.01 µM): 0.568
- relative viability (A549; first compound 0.03162 µM): 0.613
- relative viability (A549; first compound 0.1 µM): 0.577
- relative viability (A549; first compound 0.3162 µM): 0.663
- relative viability (A549; first compound 1 µM): 0.592
- relative viability (CAL-12T; first compound 0.01 µM): 0.851
- relative viability (CAL-12T; first compound 0.03162 µM): 0.809
- relative viability (CAL-12T; first compound 0.1 µM): 0.842
- relative viability (CAL-12T; first compound 0.3162 µM): 0.873
- relative viability (CAL-12T; first compound 1 µM): 0.879
- relative viability (Calu-6; first compound 0.01 µM): 0.963
- relative viability (Calu-6; first compound 0.03162 µM): 0.935
- relative viability (Calu-6; first compound 0.1 µM): 1.06
- relative viability (Calu-6; first compound 0.3162 µM): 0.944
- relative viability (Calu-6; first compound 1 µM): 0.983
- relative viability (EBC-1; first compound 0.01 µM): 0.973
- relative viability (EBC-1; first compound 0.03162 µM): 0.942
- relative viability (EBC-1; first compound 0.1 µM): 0.835
- relative viability (EBC-1; first compound 0.3162 µM): 1.06
- relative viability (EBC-1; first compound 1 µM): 0.993
- relative viability (IA-LM; first compound 0.01 µM): 0.667
- relative viability (IA-LM; first compound 0.03162 µM): 0.684
- relative viability (IA-LM; first compound 0.1 µM): 0.698
- relative viability (IA-LM; first compound 0.3162 µM): 0.506
- relative viability (IA-LM; first compound 1 µM): 0.589
- relative viability (LK-2; first compound 0.01 µM): 0.585
- relative viability (LK-2; first compound 0.03162 µM): 0.754
- relative viability (LK-2; first compound 0.1 µM): 0.83
- relative viability (LK-2; first compound 0.3162 µM): 0.554
- relative viability (LK-2; first compound 1 µM): 0.69
- relative viability (NCI-H1299; first compound 0.01 µM): 0.972
- relative viability (NCI-H1299; first compound 0.03162 µM): 0.937
- relative viability (NCI-H1299; first compound 0.1 µM): 0.945
- relative viability (NCI-H1299; first compound 0.3162 µM): 1.01
- relative viability (NCI-H1299; first compound 1 µM): 0.995
- relative viability (NCI-H1703; first compound 0.01 µM): 0.786
- relative viability (NCI-H1703; first compound 0.03162 µM): 0.991
- relative viability (NCI-H1703; first compound 0.1 µM): 0.684
- relative viability (NCI-H1703; first compound 0.3162 µM): 0.641
- relative viability (NCI-H1703; first compound 1 µM): 0.919
- relative viability (NCI-H1734; first compound 0.01 µM): 0.963
- relative viability (NCI-H1734; first compound 0.03162 µM): 1.03
- relative viability (NCI-H1734; first compound 0.1 µM): 0.906
- relative viability (NCI-H1734; first compound 0.3162 µM): 0.843
- relative viability (NCI-H1734; first compound 1 µM): 0.89
- relative viability (NCI-H2009; first compound 0.01 µM): 1.16
- relative viability (NCI-H2009; first compound 0.03162 µM): 1.17
- relative viability (NCI-H2009; first compound 0.1 µM): 1.19
- relative viability (NCI-H2009; first compound 0.3162 µM): 1.17
- relative viability (NCI-H2009; first compound 1 µM): 1.05
- relative viability (UMC-11; first compound 0.01 µM): 1.07
- relative viability (UMC-11; first compound 0.03162 µM): 1.03
- relative viability (UMC-11; first compound 0.1 µM): 1.01
- relative viability (UMC-11; first compound 0.3162 µM): 1.02
- relative viability (UMC-11; first compound 1 µM): 1.06
